In patent US12545673B2, “Imidazopyridine derivative and pharmaceutical composition comprising same as active ingredient” (TSD LIFE SCIENCES CO., LTD., priority 2019, dated 2026):
pIC50: −log10 of the molar value. Read-outs that look alike come from different tables or passages of the source.

Assays:
[1] = test system: human breast cancer cell line MDA-MB-231; assay: Cancer cell proliferation inhibitory activity evaluation 1 (CCK-8), MDA-MB-231; assay type: cell-based
[2] = test system: acute myeloid leukemia cell line U937; assay: Cancer cell proliferation inhibitory activity evaluation 1 (CCK-8), U937; assay type: cell-based; conditions: Homo sapiens, read-out: Cancer cell proliferation inhibitory activity U937
[3] = test system: colorectal cancer cell line HT-29; assay: Cancer cell proliferation inhibitory activity evaluation 1 (CCK-8), HT-29; assay type: cell-based; conditions: Homo sapiens, read-out: Cancer cell proliferation inhibitory activity HT29
[4] = test system: chronic myeloid leukemia cell line K562; assay: Cancer cell proliferation inhibitory activity evaluation 1 (CCK-8), K562; assay type: cell-based; conditions: Homo sapiens, read-out: Cancer cell proliferation inhibitory activity K562
[5] = test system: acute myeloid leukemia cell line U937; assay: Cancer cell proliferation inhibitory activity evaluation 2 (CCK-8), U937; assay type: cell-based; conditions: Homo sapiens, read-out: Cancer cell proliferation inhibitory activity U937
[6] = test system: acute lymphoblastic leukemia cell line Jurkat; assay: Cancer cell proliferation inhibitory activity evaluation 2 (CCK-8), Jurkat; assay type: cell-based; conditions: Homo sapiens
[7] = test system: gastric cancer cell line AGS; assay: Cancer cell proliferation inhibitory activity evaluation 2 (CCK-8), AGS; assay type: cell-based; conditions: Homo sapiens, read-out: Cancer cell proliferation inhibitory activity AGS
LRRK2 wild-type = LRRK2 wild-type (Homo sapiens (Human), UniProt Q5S007); assay: Evaluation of inhibitory activity against LRRK2 (affinity bead competition binding), wild-type; conditions: read-out: Residual active values (%) LRRK2; for remaining binding at 0.1 µM: 100 nM; for remaining binding at 0.5 µM: 500 nM
Sequence of LRRK2 wild-type (Q5S007 whole entry, looked up): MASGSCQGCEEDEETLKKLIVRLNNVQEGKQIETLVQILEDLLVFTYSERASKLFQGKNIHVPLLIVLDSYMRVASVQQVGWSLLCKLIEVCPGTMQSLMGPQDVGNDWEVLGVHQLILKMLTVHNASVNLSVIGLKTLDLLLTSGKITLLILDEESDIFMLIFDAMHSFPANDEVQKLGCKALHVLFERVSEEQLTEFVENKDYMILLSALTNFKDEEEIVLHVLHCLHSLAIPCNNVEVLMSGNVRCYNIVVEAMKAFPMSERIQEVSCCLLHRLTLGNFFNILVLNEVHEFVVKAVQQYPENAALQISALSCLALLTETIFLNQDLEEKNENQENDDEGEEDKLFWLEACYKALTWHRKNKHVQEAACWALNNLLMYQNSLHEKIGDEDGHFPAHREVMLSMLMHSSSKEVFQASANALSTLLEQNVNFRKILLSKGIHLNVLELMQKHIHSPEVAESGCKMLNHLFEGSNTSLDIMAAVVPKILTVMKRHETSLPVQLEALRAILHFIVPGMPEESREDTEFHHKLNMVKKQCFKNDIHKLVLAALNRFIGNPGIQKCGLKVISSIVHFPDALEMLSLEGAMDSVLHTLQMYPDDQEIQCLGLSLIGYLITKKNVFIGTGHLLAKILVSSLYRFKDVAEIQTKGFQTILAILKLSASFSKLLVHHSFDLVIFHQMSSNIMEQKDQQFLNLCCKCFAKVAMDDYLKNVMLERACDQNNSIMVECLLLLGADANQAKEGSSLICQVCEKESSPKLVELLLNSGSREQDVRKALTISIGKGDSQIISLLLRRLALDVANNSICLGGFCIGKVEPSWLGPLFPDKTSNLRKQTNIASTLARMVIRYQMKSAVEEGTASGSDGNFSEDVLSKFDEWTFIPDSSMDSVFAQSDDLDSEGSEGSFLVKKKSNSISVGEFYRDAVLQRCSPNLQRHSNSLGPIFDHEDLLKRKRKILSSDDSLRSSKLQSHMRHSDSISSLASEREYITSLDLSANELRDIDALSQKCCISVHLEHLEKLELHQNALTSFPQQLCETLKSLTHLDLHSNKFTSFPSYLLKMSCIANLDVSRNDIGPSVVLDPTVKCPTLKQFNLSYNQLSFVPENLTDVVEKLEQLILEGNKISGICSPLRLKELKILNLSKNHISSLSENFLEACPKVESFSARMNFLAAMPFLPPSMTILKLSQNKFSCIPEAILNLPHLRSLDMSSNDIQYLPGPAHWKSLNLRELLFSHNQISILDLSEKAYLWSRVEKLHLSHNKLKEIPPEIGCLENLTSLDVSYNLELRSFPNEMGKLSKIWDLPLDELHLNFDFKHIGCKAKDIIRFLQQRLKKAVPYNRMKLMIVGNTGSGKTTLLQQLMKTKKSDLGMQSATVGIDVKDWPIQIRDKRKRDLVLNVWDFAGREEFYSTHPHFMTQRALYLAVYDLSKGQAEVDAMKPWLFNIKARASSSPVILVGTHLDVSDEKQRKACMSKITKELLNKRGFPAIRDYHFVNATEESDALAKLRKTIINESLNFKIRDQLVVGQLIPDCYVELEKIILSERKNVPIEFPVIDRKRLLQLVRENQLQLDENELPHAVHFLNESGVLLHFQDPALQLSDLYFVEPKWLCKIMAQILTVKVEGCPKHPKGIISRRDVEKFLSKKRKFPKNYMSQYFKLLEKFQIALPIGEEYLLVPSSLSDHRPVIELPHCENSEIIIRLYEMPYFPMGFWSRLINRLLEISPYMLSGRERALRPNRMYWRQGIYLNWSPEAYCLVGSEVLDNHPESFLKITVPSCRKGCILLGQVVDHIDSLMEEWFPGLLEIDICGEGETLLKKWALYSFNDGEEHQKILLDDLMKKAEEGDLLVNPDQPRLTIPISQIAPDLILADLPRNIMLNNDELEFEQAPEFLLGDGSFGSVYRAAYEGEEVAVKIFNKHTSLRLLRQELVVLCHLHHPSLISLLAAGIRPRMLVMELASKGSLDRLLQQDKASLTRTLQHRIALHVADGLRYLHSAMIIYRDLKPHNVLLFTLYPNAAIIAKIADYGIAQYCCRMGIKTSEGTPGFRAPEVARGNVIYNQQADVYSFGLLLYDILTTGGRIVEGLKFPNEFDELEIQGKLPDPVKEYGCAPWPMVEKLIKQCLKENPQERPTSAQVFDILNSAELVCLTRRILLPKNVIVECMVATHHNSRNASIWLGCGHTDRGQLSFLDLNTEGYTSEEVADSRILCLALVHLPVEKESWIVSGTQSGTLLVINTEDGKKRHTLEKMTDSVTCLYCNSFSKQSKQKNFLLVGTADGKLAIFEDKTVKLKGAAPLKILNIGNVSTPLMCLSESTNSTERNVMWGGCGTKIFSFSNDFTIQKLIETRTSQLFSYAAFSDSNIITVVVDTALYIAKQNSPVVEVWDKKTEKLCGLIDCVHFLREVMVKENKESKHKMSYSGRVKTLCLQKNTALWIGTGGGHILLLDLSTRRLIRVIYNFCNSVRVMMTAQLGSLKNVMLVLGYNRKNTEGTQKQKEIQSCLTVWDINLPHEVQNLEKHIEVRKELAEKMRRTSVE
Method in brief: (§1)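 Competition binding against immobilized biotinylated ligand for DNA-tagged wild-type or G2019S LRRK2, produced from T7 phage-infected E. coli (MOI 0.4, 32° C.) lysate then HEK293 cells. Beads blocked and washed in SeaBlock buffer (1% BSA, 0.05% Tween 20, 1 mM DTT); compounds prepared as 40× stocks in 100% DMSO.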

LRRK2 mutant (G2019S) = LRRK2 mutant (G2019S) (Homo sapiens (Human), UniProt Q5S007, G2019S); assay: Evaluation of inhibitory activity against LRRK2 (affinity bead competition binding), G2019S mutant; conditions: read-out: Residual active values (%) LRRK2(G2019S); for remaining binding at 0.1 µM: 100 nM; for remaining binding at 0.5 µM: 500 nM
Sequence of LRRK2 mutant (G2019S) (Q5S007 whole entry G2019S, looked up): as the sequence (Q5S007 whole entry, looked up) above, with G2019S counted along it
Method in brief: as §1

MLK3 = MLK3 (Homo sapiens (Human), UniProt Q16584); assay: Evaluation of inhibitory activity of enzyme units, MLK3 ([γ-33P]-ATP filter assay); conditions: for IC50: read-out: IC50(nM) MLK3
Sequence of MLK3 (Q16584 whole entry, looked up): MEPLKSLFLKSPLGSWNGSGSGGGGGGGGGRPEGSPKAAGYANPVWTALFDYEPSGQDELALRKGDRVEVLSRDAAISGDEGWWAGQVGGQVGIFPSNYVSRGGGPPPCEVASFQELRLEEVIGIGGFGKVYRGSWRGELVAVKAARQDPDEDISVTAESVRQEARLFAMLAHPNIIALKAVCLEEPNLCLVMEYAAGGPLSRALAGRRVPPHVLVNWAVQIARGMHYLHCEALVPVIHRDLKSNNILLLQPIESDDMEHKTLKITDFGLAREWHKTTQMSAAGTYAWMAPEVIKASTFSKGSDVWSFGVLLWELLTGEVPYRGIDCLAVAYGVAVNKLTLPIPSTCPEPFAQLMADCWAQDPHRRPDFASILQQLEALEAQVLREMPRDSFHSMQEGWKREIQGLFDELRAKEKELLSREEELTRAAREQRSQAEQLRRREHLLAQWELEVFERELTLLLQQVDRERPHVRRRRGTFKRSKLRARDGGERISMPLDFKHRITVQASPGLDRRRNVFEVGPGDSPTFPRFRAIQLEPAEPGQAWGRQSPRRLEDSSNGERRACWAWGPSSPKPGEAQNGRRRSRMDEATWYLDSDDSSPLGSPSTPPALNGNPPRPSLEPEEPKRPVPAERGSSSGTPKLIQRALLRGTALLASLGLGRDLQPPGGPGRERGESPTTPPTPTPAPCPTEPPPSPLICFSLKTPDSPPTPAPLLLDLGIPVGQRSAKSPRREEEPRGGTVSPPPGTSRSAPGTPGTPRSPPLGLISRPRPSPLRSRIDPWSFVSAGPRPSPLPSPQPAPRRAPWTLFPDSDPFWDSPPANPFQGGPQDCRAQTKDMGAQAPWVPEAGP

α-SMA = assay: Fibrosis inhibition evaluation 2, palmitic acid-induced HepG2, real-time PCR, α-SMA; conditions: palmitic acid-induced HepG2 (Table 8)
TGF-β1 = assay: Fibrosis inhibition evaluation 2, palmitic acid-induced HepG2, real-time PCR, TGF-β1
Fibronectin-1 = assay: Fibrosis inhibition evaluation 2, palmitic acid-induced HepG2, real-time PCR, Fibronectin-1
MLK2 = MLK2 (Homo sapiens (Human), UniProt Q02779); assay: Evaluation of inhibitory activity of enzyme units, MLK2 ([γ-33P]-ATP filter assay); assay type: biochemical
MLK1 = MLK1 (Homo sapiens (Human), UniProt P80192); assay: Evaluation of inhibitory activity of enzyme units, MLK1 ([γ-33P]-ATP filter assay); assay type: biochemical
Sequence of MLK1 (P80192 whole entry, looked up): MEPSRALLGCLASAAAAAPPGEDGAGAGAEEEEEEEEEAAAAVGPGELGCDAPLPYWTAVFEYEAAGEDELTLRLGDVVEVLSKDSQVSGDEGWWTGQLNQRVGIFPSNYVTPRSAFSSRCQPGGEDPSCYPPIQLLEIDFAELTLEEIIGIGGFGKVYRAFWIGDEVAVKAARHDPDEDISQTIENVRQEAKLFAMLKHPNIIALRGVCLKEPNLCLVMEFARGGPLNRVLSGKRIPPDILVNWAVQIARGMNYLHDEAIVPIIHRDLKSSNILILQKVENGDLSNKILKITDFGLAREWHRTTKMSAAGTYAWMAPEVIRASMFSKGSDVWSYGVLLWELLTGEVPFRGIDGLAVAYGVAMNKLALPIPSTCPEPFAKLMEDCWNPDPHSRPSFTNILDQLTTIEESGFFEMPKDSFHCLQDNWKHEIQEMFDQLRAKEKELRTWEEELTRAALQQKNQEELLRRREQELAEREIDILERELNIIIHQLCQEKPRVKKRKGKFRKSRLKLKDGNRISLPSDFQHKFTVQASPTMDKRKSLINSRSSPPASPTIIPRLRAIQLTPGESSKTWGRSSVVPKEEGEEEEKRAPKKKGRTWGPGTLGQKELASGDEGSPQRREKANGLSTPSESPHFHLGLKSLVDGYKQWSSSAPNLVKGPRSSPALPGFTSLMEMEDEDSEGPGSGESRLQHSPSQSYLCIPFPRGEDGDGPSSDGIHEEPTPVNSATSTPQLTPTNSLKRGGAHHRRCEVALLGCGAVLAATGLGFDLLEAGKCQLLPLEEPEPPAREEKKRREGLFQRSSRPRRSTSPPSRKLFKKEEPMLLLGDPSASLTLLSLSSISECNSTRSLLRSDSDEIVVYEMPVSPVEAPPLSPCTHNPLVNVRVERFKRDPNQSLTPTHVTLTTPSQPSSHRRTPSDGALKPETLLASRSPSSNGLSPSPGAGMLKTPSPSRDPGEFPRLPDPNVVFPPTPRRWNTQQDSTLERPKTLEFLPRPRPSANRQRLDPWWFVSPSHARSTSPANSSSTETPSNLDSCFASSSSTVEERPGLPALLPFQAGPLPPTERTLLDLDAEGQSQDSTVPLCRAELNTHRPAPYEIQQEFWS

influenza virus PR8 = assay: microbe, parasite or virus in culture; assay type: cell-based; conditions: for EC50: unidentified influenza virus, PR8, MDCK, read-out: Antiviral activity (EC50, μM) PR8
influenza virus HK = assay: microbe, parasite or virus in culture; assay type: cell-based; conditions: for EC50: unidentified influenza virus, MDCK, read-out: Antiviral activity (EC50, μM) HK
influenza virus LE = assay: microbe, parasite or virus in culture; assay type: cell-based; conditions: for EC50: unidentified influenza virus, MDCK, read-out: Antiviral activity (EC50, μM) LE
in vitro = conditions: dog
[8] = test system: gastric cancer cell line Hs746T; assay: Cancer cell proliferation inhibitory activity evaluation 2 (CCK-8), Hs746T; assay type: cell-based; conditions: Homo sapiens, 72 h, read-out: Cancer cell proliferation inhibitory activity Hs746T
[9] = test system: human lung cancer cell line A549; assay: Cancer cell proliferation inhibitory activity evaluation 2 (CCK-8), A549; assay type: cell-based; conditions: A549, 72 h, read-out: Cancer cell proliferation inhibitory activity A549
[10] = 72 h, read-out: Cancer cell proliferation inhibitory activity Jurkat
[11] = U-937, 10 μM, 72 hours, CCK-8 (Table 3)
[12] = 10 μM, 72 hours, CCK-8, read-out: Cancer cell proliferation inhibitory activity Jurkat

Structure (SMILES)	inhibition at 10 µM ([5]; U-937, 72 h)	inhibition at 10 µM [6, 10]	inhibition at 10 µM ([7]; 72 h)	remaining binding at 0.1 µM (LRRK2 wild-type)	remaining binding at 0.5 µM (LRRK2 wild-type)	remaining binding at 0.1 µM (LRRK2 mutant (G2019S))	IC50 (MLK3)	Relative degree of expression inhibition (%) α-SMA (α-SMA)	Relative degree of expression inhibition (%) TGF-β1 (TGF-β1)	Relative degree of expression inhibition (%) Fibronectin-1 (Fibronectin-1)	IC50 (MLK2)	IC50 (MLK1)	EC50 (influenza virus PR8)	Selectivity index: CC50/EC50 HK (influenza virus HK)	EC50 (influenza virus HK)	EC50 (influenza virus LE)	CC50 at 3 days (in vitro)	inhibition at 10 µM [5, 11]	inhibition at 10 µM [6, 12]	inhibition at 10 µM ([7]; 10 μM, 72 hours, CCK-8)	further results
CCS(=O)(=O)N1CC[C@H](Nc2c(Br)cnc3[nH]c(-c4cc(C)n(-c5cccc(N6CCOCC6)c5)c4C)nc23)C1 [Example 2, (S)-6-bromo-2-(2,5-dimethyl-1-(3-morpholinophenyl)-1H-pyrrol-3-yl)-N-(1-(ethylsulfonyl)pyrrolidine-3-yl)-3H-imidazo[4,5-b]pyridine-7-amine]	10 to 50%	10 to 50%	> 50%	17%	3.5%	4%	4 nM	48.35%	97.39%	77.72%	–	–	–	–	–	–	–	–	–	–	inhibition at 10 µM ([1]; MDA-MB-231, 72 h, read-out: Cancer cell proliferation inhibitory activity MDAMB231): > 50%; inhibition at 10 µM ([2]; U-937, 72 h): > 50%; inhibition at 10 µM ([3]; HT-29, 72 h): > 50%; inhibition at 10 µM ([4]; K562, 72 h): > 50%; remaining binding at 0.5 µM (LRRK2 mutant (G2019S)): 0.8%
CCS(=O)(=O)N1CC[C@H](Nc2c(Br)cnc3nc(-c4cc(C)n(-c5cccc(S(N)(=O)=O)c5)c4C)[nH]c23)C1 [Example 23, (S)-3-(3-(6-bromo-7-((1-(ethylsulfonyl)pyrrolidine-3-yl)amino)-1H-imidazo[4,5-b]pyridine-2-yl)-2,5-dimethyl-1H-pyrrol-1-yl)benzenesulfonamide]	10 to 50%	> 50%	10 to 50%	–	–	–	17 nM	–	–	–	56 nM	25 nM	> 100 µM	>3.2	31.6 µM	> 100 µM	> 100000 nM	–	–	–	–
Cc1cc(-c2nc3c(Nc4ccc5c(c4)OCO5)c(Br)cnc3[nH]2)c(C)n1-c1cccc(S(N)(=O)=O)c1 [Example 44, 3-(3-(7-(benzo[d][1,3]dioxole-5-yl-amino)-6-bromo-3H-imidazo[4,5-b]pyridine-2-yl)-2,5-dimethyl-1H-pyrrol-1-yl)benzenesulfonamide]	–	–	–	–	–	–	27 nM	73.45%	57.05%	75.60%	211 nM	109 nM	–	–	–	–	–	10 to 50%	10 to 50%	10 to 50%	–
COCCOc1ccc(Nc2c(Br)cnc3[nH]c(-c4cc(C)n(-c5ccc6c(c5)OCO6)c4C)nc23)cc1 [Example 45, 2-(1-(benzo[d][1,3]dioxole-5-yl)-2,5-dimethyl-1H-pyrrol-3-yl)-6-bromo-N-(4-(2-methoxyethoxy)phenyl)-3H-imidazo[4,5-b]pyridine-7-amine]	–	–	–	–	–	–	32 nM	74.97%	33.15%	60.64%	524 nM	85 nM	–	–	–	–	–	10 to 50%	< 10%	10 to 50%	–
CCS(=O)(=O)N1CC[C@H](Nc2c(Br)cnc3nc(-c4cc(C)n(-c5ccc(OCCN6CCOCC6)cc5)c4C)[nH]c23)C1 [Example 4, (S)-6-bromo-2-(2,5-dimethyl-1-(4-(2-morpholinoethoxy)phenyl)-1H-pyrrol-3-yl)-N-(1-(ethylsulfonyl)pyrrolidine-3-yl)-1H-imidazo[4,5-b]pyridine-7-amine]	–	–	–	–	–	–	–	–	–	–	–	–	11.1 µM	>10.2	9.8 µM	9.9 µM	> 100000 nM	> 50%	> 50%	> 50%	inhibition at 10 µM ([1]; MDA-MB-231, 10 μM, 72 hours, CCK-8, read-out: Cancer cell proliferation inhibitory activity MDAMB231): 10 to 50%; inhibition at 10 µM ([2]; U-937, 10 μM, 72 hours, CCK-8 (Table 2)): > 50%; inhibition at 10 µM ([3]; HT-29, 10 μM, 72 hours, CCK-8): > 50%; inhibition at 10 µM ([4]; K562, 10 μM, 72 hours, CCK-8): > 50%; Selectivity index: CC50/EC50 LE (influenza virus LE): >10.1
CCS(=O)(=O)N1CC[C@H](Nc2c(Br)cnc3[nH]c(-c4cc(C)n(-c5cc(S(N)(=O)=O)ccc5Cl)c4C)nc23)C1 [Example 17, 3-(3-(6-bromo-7-(((S)-1-(ethylsulfonyl)pyrrolidine-3-yl)amino)-3H-imidazo[4,5-b]pyridine-2-yl)-2,5-dimethyl-1H-pyrrol-1-yl)-4-chlorobenzenesulfonamide]	–	–	–	–	–	–	–	–	–	–	–	–	92.9 µM	>9.3	10.8 µM	> 100 µM	> 100000 nM	10 to 50%	> 50%	> 50%	Selectivity index: CC50/EC50 PR8 (influenza virus PR8): >1.1; pIC50 (MLK3): 7.92
CCS(=O)(=O)N1CC[C@H](Nc2c(Br)cnc3nc(-c4cc(C)n(-c5cccc(NS(C)(=O)=O)c5)c4C)[nH]c23)C1 [Example 12, (S)—N-(3-(3-(6-bromo-7-((1-(ethylsulfonyl)pyrrolidine-3-yl)amino)-1H-imidazo[4,5-b]pyridine-2-yl)-2,5-dimethyl-1H-pyrrol-1-yl)phenyl) methanesulfonamide]	10 to 50%	10 to 50%	> 50%	16%	3.7%	3.6%	7 nM	49.92%	113.03%	74.32%	65 nM	52 nM	100 µM	>3.7	27 µM	> 100 µM	> 100000 nM	–	–	–	remaining binding at 0.5 µM (LRRK2 mutant (G2019S)): 0.5%
CCS(=O)(=O)N1CC[C@H](Nc2c(Br)cnc3nc(-c4cc(C)n(-c5cccc(C(=O)N6CCN(C)CC6)c5C)c4C)[nH]c23)C1 [Example 81, (3-(3-(6-bromo-7-(((S)-1-(ethylsulfonyl)pyrrolidine-3-yl)amino)-1H-imidazo[4,5-b]pyridine-2-yl)-2,5-dimethyl-1H-pyrrol-1-yl)-2-methylphenyl) (4-methylpiperazine-1-yl) methanone]	> 50%	> 50%	> 50%	0.7%	0.6%	0%	9 nM	61.69%	44.28%	61.05%	–	14 nM	–	–	–	–	–	–	–	–	inhibition at 10 µM [8]: 10 to 50%; inhibition at 10 µM [9]: 10 to 50%; remaining binding at 0.5 µM (LRRK2 mutant (G2019S)): 0.1%
